# According to patent US10238713B2, “Cyclic tetrapeptides and therapeutic applications thereof” (LODZ UNIVERSITY OF TECHNOLOGY, priority 2010, dated 2019):
# “And” between values parts separate entries of the source, which are not always exact repeats. Equal entries are not always repeated. Where two headings read alike, the source gives them in different places. Non-standard residues stand in square brackets, D forms with d. Residues, ends and D or L forms follow the SMILES beside them. β3hF = N[C@H](CC(=O)O)Cc1ccccc1
# Columns and labels:
# [1] = system: BALB/c mice, immune response to TDI; experiment: Toluene diisocyanate (TDI)-induced ear inflammation in BALB/c mice; type: in vivo
# Description: BALB/c female mice, 8-10 weeks old, were delivered by the Institute of Laboratory Medicine, Łódź, Poland. The mice were fed a commercial, pelleted food and water ad libitum. The local ethics committee approved the study.
# The test was performed according to Yamamoto, Eur. J. Pharmacol., 2006, 550, 166-172, with minor modifications. Mice were shaved on the abdomen (2×2 cm area) and after 24 h 100 μl of 3% TDI in acetone was applied through 3 consecutive days. After 14 days the reaction was elicited by application of 50 μl of 0.3% TDI on both sides of the ears. The procedure was repeated 5 times every 3 days. Ear thickness was measured using a spring caliper (Mitutoyo) 5 h and 24 h after each challenge with TDI.
# Compound I-A was applied topically in the form of 0.1% ointment on both sides of the ears (total volume of 100 μl-50 μl per ear), one hour after each challenge with TDI. The reference drugs were applied in a similar way.
# Superficial parotid, mandibular and accessory mandibular lymph nodes were isolated, homogenized by pressing against a stainless screen into PBS, washed 2× with PBS and re-suspended in PBS containing 0.2% Trypan blue. The total and nonviable cell numbers were counted using a light microscope and Bürker's hemocytometer.
# Mice were subjected to halothane anesthesia and bled from the retro-orbital plexus, followed by the cervical dislocation. The number of blood leukocytes was determined by dilution of blood in Turk's solution and counting the cells in a hemocytometer. Blood smears were prepared on microscope glass, dried and stained with Giemsa and May-Grünwald reagents. The smears were subsequently reviewed histologically. The cell numbers were presented per 1 μl and the blood cell compositions as a percentage of a given cell type.
# Mice were given 1 mg of Evans blue in 0.2 ml of 0.9% NaCl, intravenously. After 30 min mice were sacrificed, the ears were cut off, weighed and immersed in 50 μl of 1M KOH for 18 h at 37° C. The dye was extracted from the ears using 450 μl of 0.2 M phosphate acid and acetone (5:13 ratio). The samples were centrifuged at 3,000 rpm for 15 min. The optical densities (OD) of the supernatants were measured at 630 nm. The amount of Evans blue (g/ml) was determined based on a standard curve. The results were presented as the amount of Evans blue per 100 mg of wet tissue. Mice treated only with the eliciting dose of antigen served as a background control.
# The auricles were fixed in 4% formalin solution for 48 h, washed for 24 h, dehydrated in an alcohol series and embedded in paraffin. The paraffin blocks were sliced in a Micron HM310 microtome into […]. The sections were stained with haematoxylin and eosin and with toluidine blue. Histological analysis was performed using a Nikon Eclipse 801light microscope. Morphometric estimations of neutrophils, macrophages, lymphocytes and mast cells in the perivascular and subepithelial connective tissue were performed on the histological slides containing cross-sections of auricles. Cells were counted on an area of 0.07 mm^2 at 400× magnification. Morphometric analysis was performed using an imagine software NIS-Elements (Nikon). For every preparation examined, 25 enumerations of neutrophils, macrophages, lymphocytes and mast cells were carried out.
# [2] = system: LPS-induced TNF-α production; type: cell-based; conditions: for % inhibition vs. DMSO / TNF-α: Table 2A
# Description: Human whole blood was diluted 10-fold with RPMI-1640 medium and distributed to 24-well culture plates in 1 ml aliquots. LPS was added to the culture at a concentration of 1 μg/ml. The studied peptides were used at concentrations of 1, 10 and 100 μg/ml. After overnight incubation, the supernatants were harvested and frozen at −20° C. until cytokine determination. TNF-α activity was determined using a bioassay. Briefly, WEHI 164.13 cells (ATCC CRL 1751) were seeded at a concentration of 2×10^4 cells/well in quadriplicate. Increasing dilutions of the assayed supernatant were mixed with the target cells in the presence of actinomycin D (1 μg/ml). After 20 h of incubation, MTT was added into the wells, and the cultures were incubated for an additional 4 h. […] The detection limit of the assay was about 2.5 pg/ml. One unit of TNF-α activity was defined as an inverse of supernatant dilution where 50% cell death took place. The cultures labeled “Control (−)” contained no LPS. The cultures labeled “Control (LPS)” contained LPS and none of the studied compounds. Statistical analysis was not applied since the data derive from single cultures (wells).
# [3] = system: PHA-induced proliferation of human peripheral blood mononuclear cells (PBMC); experiment: Proliferative response of PBMC to PHA (MTT); type: cell-based; conditions: 1 μg/ml, four-day incubation; FIGS. 9A-9B; listed as 4B8M
smiles,measurement,setting,value
O=C1C[C@H](Cc2ccccc2)NC(=O)[C@@H]2CCCN2C(=O)[C@@H]2CCCN2C(=O)[C@H](Cc2ccccc2)N1 [I-A] (cyclo(FPP[β3hF])),"ear thickness, P vs Control","[1]; 5 h after challenge, Day 14, topical 1 h after each TDI challenge, FIG. 10A",0.0005
same,"ear thickness, P vs Control","[1]; 5 h after challenge, Day 17, FIG. 10A",0.0001
same,"ear thickness, P vs Control","[1]; 5 h after challenge, Day 20, FIG. 10A",0.0001
same,"ear thickness, P vs Control","[1]; 5 h after challenge, Day 23, FIG. 10A",0.0001
same,"ear thickness, P vs Control","[1]; 5 h after challenge, Day 27, FIG. 10A",0.0001
same,"ear thickness, P vs Control","[1]; 24 h after challenge, Day 14, FIG. 10B",0.0001
same,"ear thickness, P vs Control","[1]; 24 h after challenge, Day 17, FIG. 10B",0.0001
same,"ear thickness, P vs Control","[1]; 24 h after challenge, Day 20, FIG. 10B",0.0006
same,"ear thickness, P vs Control","[1]; 24 h after challenge, Day 23, FIG. 10B",0.0001
same,"ear thickness, P vs Control","[1]; 24 h after challenge, Day 27, FIG. 10B",0.0001
same,"permeability of capillary blood vessels in the Evans blue test, P vs Control","[1]; 24 h after the fifth challenge with TDI (day 28), FIG. 11",0.030
same,"total number of cells in the draining lymph nodes, P vs Control","[1]; ANOVA of Kruskal-Wallis, FIG. 12",0.0001
same,"numbers of circulating leukocytes, P vs Control","[1]; ANOVA, FIG. 13",0.0001
same,total number of cells in the draining lymph nodes,[1]; FIG. 12,reduction of the lymph node cell numbers almost to the background levels
same,"blood cell composition, Eosinophils (E), P vs Control",[1]; FIG. 14,0.0001
same,"blood cell composition, Lymphocytes (L), P vs Control",[1]; FIG. 14,0.0043
same,blood picture (neutrophil and eosinophil contents),[1]; FIG. 14,normalized
same,"auricle Ne (neutrophils), P vs Control",[1]; FIG. 15,0.0151
same,cell numbers in the auricles after treatment,"[1]; area 0.07 mm^2, cell type not stated, sensitized untreated control: 20 mastocytes, 23 neutrophils, FIG. 15",14.8 cells per the analyzed area
same,% inhibition vs. DMSO,[2]; compound 1 μg/ml,9.8%
same,TNF-α,"[2]; compound 1 μg/ml, LPS 1 μg/ml, overnight",7364 pg/mL
same,% inhibition vs. DMSO,[2]; compound 10 μg/ml,10.4%
same,TNF-α,[2]; compound 10 μg/ml,7176 pg/mL
same,% inhibition vs. DMSO,[2]; compound 100 μg/ml,9.2%
same,TNF-α,[2]; compound 100 μg/ml (DMSO only: 196),178 pg/mL
same,% of inhibition vs. DMSO,"[2]; Table 2B, compound 1 μg/ml",10.0%
same,TNF alpha,"[2]; Table 2B, compound 1 μg/ml",4097 pg/mL
same,TNF alpha,"[2]; Table 2B, compound 10 μg/ml",4416 pg/mL
same,TNF alpha,"[2]; Table 2B, compound 100 μg/ml (DMSO only: 854)",979 pg/mL
same,"PHA-induced PBMC proliferation, P vs DMSO at appropriate dilution",[3],0.9995 and 0.9919
